For test [1], the system named is EMT-6. The test can be described thus: In vivo antitumor efficacy in EMT-6 model versus free docetaxel (Example 3). Also noted: species or system mouse. The note with it: EMT-6, Example 3.
The test system of test [2] is EMT-6. The test can be described thus: In vivo tumor growth inhibition in EMT-6 model versus dose-dense and standard docetaxel (Example 6). The arrangement: species or system mouse. The note with it: EMT-6, Example 6; docetaxel 3.33 mg/kg three times a week (DTX-DD); Figure 7A.
A further test concerns MC38. The test can be described thus: In vivo antitumor efficacy in MC38 colon cancer model (Example 8). The arrangement: species or system mouse. The note with it: MC38, C57BL6/J mice; days after treatment initiation; Figure 9B.
The subject of another test is T cells in EMT-6 tumors. The test can be described thus: FACS of immune cell infiltrate in EMT-6 tumors versus dose-dense and standard docetaxel (Example 6). It is filed as in vivo, mouse. The note with it: EMT-6, Example 6.

Molecules are shown by their SMILES.

Regarding `CC(=O)O[C@@]12CO[C@@H]1C[C@H](O)[C@@]1(C)C(=O)[C@H](O)C3=C(C)[C@@H](OC(=O)[C@H](O)[C@@H](NC(=O)OC(C)(C)C)c4ccccc4)C[C@@](O)([C@@H](OC(=O)c4ccccc4)[C@H]21)C3(C)C` [docetaxel], in the test with EMT-6 [1], the tumor regression entry is given as “no tumor regression”. Also, in the test with EMT-6 [1] (monotherapy, PD-1 10 mg/kg twice weekly, docetaxel 10 mg/kg q1w), the growth arrest entry is “minimal growth arrest”. Besides, in the test on EMT-6 [2], the “tumor growth inhibition (in words)” value is “improved growth inhibition relative to DTX-MTD, but it did not recapitulate the inhibition observed in 46scFv-ILs-DTXp3 treatment”. In addition, the median survival in the test with MC38 is listed as 16 days. The “effect on intratumoral immune cell populations” value with T cells in EMT-6 tumors (dose-dense docetaxel (DTX-DD), 3.33 mg/kg three times a week) is given as “Neither the dose-dense (DTX-DD) nor the weekly (DTX-MTD) docetaxel treatment groups were observed to affect these intratumoral immune cell populations”; with T cells in EMT-6 tumors (weekly docetaxel (DTX-MTD), 10 mg/kg once a week), “Neither the dose-dense (DTX-DD) nor the weekly (DTX-MTD) docetaxel treatment groups were observed to affect these intratumoral immune cell populations”.
